According to ChEMBL document CHEMBL1201862, “PubChem BioAssay data set” (2004):
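All cell lines were grown in 96-well plates and treated with compound for 48 hours. Here, GI50 denotes the concentration required for 50% inhibition of growth.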 Activity calls are given as the source filed them. Cut-off read from the data, not from the text of the source: active = GI50 up to about 1.1 µM and inactive = higher.

Assays:
Test in all cases: NCI tumour cell line growth inhibition, 48 h
EKVX = tested on: EKVX
HCC 2998 = tested on: HCC 2998
HCT-116 = tested on: HCT-116
HCT-15 = tested on: HCT-15
HT-29 = tested on: HT-29
IGROV-1 = tested on: IGROV-1
K562 = tested on: K562
LOX IMVI = tested on: LOX IMVI
NCI-H226 = tested on: NCI-H226
NCI-H23 = tested on: NCI-H23
NCI-H460 = tested on: NCI-H460
OVCAR-5 = tested on: OVCAR-5
OVCAR-8 = tested on: OVCAR-8
RPMI-8226 = tested on: RPMI-8226
SF-539 = tested on: SF-539
SK-MEL-2 = tested on: SK-MEL-2
SK-MEL-5 = tested on: SK-MEL-5
SNB-75 = tested on: SNB-75
SW-620 = tested on: SW-620
MDA-MB-435 = tested on: MDA-MB-435

Row | SMILES | GI50 (EKVX) | GI50 (HCC 2998) | GI50 (HCT-116) | GI50 (HCT-15) [µM] | GI50 (HT-29) | GI50 (IGROV-1) | GI50 (K562) | GI50 (LOX IMVI) | GI50 (NCI-H226) | GI50 (NCI-H23) | GI50 (NCI-H460) | GI50 (OVCAR-5) | GI50 (OVCAR-8) | GI50 (RPMI-8226) | GI50 (SF-539) | GI50 (SK-MEL-2) | GI50 (SK-MEL-5) | GI50 (SNB-75) | GI50 (SW-620) | GI50 (MDA-MB-435)
1 | CC(C)(c1ccccc1)c1ccc(OC#N)cc1 | > 100 µM (inactive) | > 77.6 µM (inactive) | 34.4 µM (inactive) | 15.2 | > 70.3 µM (inactive) | > 100 µM (inactive) | 37.8 µM (inactive) | > 41 µM (inactive) | 51.5 µM (inactive) | 68.9 µM (inactive) | 38.5 µM (inactive) | > 100 µM (inactive) | > 100 µM (inactive) | 34.1 µM (inactive) | 38.1 µM (inactive) | > 100 µM (inactive) | 48.8 µM (inactive) | 15.2 µM (inactive) | 99.3 µM (inactive) | 
2 | C=CCCC(CCC=C)(C(=O)O)C(=O)O | > 100 µM (inactive) | > 100 µM (inactive) | > 100 µM (inactive) | > 100 | > 100 µM (inactive) | > 100 µM (inactive) | > 100 µM (inactive) | > 100 µM (inactive) |  | > 100 µM (inactive) | > 100 µM (inactive) | > 100 µM (inactive) | > 100 µM (inactive) | > 100 µM (inactive) | > 100 µM (inactive) | > 100 µM (inactive) | > 100 µM (inactive) | > 100 µM (inactive) | > 100 µM (inactive) | > 100 µM (inactive)
3 | Cc1nc(N)sc1C(=O)/C=C\c1ccc2c(c1)OCO2 | > 100 µM (inactive) | > 100 µM (inactive) | > 100 µM (inactive) | > 100 | > 100 µM (inactive) | > 100 µM (inactive) | > 100 µM (inactive) | > 100 µM (inactive) | > 100 µM (inactive) | > 100 µM (inactive) | > 100 µM (inactive) | > 100 µM (inactive) | > 100 µM (inactive) | > 100 µM (inactive) | > 100 µM (inactive) | > 100 µM (inactive) | > 100 µM (inactive) | > 100 µM (inactive) | > 100 µM (inactive) | 
4 | O=C(NC(=S)NC(=O)c1cc(O)c(O)c(O)c1)c1cc(O)c(O)c(O)c1 |  | 31 µM (inactive) | 20.4 µM (inactive) | 23.9 | 25.9 µM (inactive) |  | 8.34 µM (inactive) | 12.8 µM (inactive) | 39.1 µM (inactive) | 23.7 µM (inactive) | 26.5 µM (inactive) | 27 µM (inactive) | 20.7 µM (inactive) | 48.3 µM (inactive) | 30.8 µM (inactive) | 20.1 µM (inactive) | 24.5 µM (inactive) |  | 27.7 µM (inactive) | 7.93 µM (inactive)
